Reference: patent publication US10731159B2, “Cationic lipid” (DAIICHI SANKYO COMPANY, LIMITED, priority 2013, dated 2020)

Legend:
[1] = Average particle size of nucleic acid lipid particle (NICOMP 380ZLS); format: physicochemical
Method: The particle size of the liposome was measured using Zeta Potential/Particle Sizer NICOMP™ 380ZLS (Particle Sizing Systems, LLC). In the tables, the average particle size is indicated by a volume-average particle size, and the numeric value following ±represents a deviation.

[2] = Rate of encapsulation of polynucleotide/mRNA (Quant-iT RiboGreen, with and without Triton X-100); format: physicochemical
Method: The rate of encapsulation of the double-stranded polynucleotide was measured using Quant-iT RiboGreen RNA Assay kit (Invitrogen Corp.) according to the attached document.
(§1) Specifically, the double-stranded polynucleotide in the nucleic acid lipid particle dispersion was quantified in the presence and absence of a 0.015% Triton X-100 detergent, and the rate of encapsulation was calculated according to the following expression: {[Amount of the double-stranded polynucleotide in the presence of the detergent]−[Amount of the double-stranded polynucleotide in the absence of the detergent]}/[Amount of the double-stranded polynucleotide in the presence of the detergent]}×100(%) (3) Ratio of Double-Stranded Polynucleotide to Lipid
The rate of encapsulation of the mRNA was measured using Quant-iT RiboGreen RNA Assay kit (Invitrogen Corp.) according to the attached document.
as §1, with “mRNA” for “double-stranded polynucleotide”, “mRNA” for “Double-Stranded Polynucleotide”

[3] = Ratio of polynucleotide/mRNA to lipid (wt/wt); format: physicochemical
Method: The nucleic acid lipid particle dispersion was mixed with acetonitrile and chloroform at a ratio of 1:1:1 and centrifuged at 15,000 rpm for 2 minutes. Then, the aqueous layer obtained as an upper layer was recovered, followed by the extraction of the double-stranded polynucleotide. The amount of the double-stranded polynucleotide in the sample was measured by ion-exchange chromatography (system: Agilent 1100 series, column: TSKgel DEAE-2SW (2.6×150 mm) (Tosoh Corp), buffer A: 20% acetonitrile, buffer B: 20% acetonitrile and 1.6 M ammonium formate, gradient (B %): 30-55% (0-20 min), flow rate: 1 mL/min, temperature: 40° C., detection: 260 nm).
The amount of the phospholipid in the nucleic acid lipid particle dispersion was measured using Phospholipid C-Test Wako (Wako Pure Chemical Industries Ltd.) according to the attached document. Specifically, the phospholipid in the sample was quantified in the presence of a 1% Triton X-100 detergent.
(§2) The amounts of cholesterol and LP in the nucleic acid lipid particle dispersion were measured by reverse-phase chromatography (system: Agilent 1100 series, column: Chromolith Performance RP-18 endcapped 100-3 monolithic HPLC-column (Merck), buffer A: 0.01% trifluoroacetic acid, buffer B: 0.01% trifluoroacetic acid and methanol, gradient (B %): 87-92% (0-10 min), flow rate: 2 mL/min, temperature: 50° C., detection: 205 nm).
(§3) The total amount of lipids was calculated from the amount of the phospholipid and the compositional ratio of lipid components constituting the liposome, and the ratio of the polynucleotide to the lipid was calculated from the aforementioned amount of the polynucleotide and the total amount of lipids according to the following expression: [Double-stranded polynucleotide concentration]/[Total lipid concentration] (wt/wt)
as §3, with “phospholipid, the amount of cholesterol, and the amount of LP,” for “phospholipid”
The amount of the double-stranded polynucleotide in a sample from the nucleic acid lipid particle dispersion was measured in the presence of a 5% Triton X-100 detergent by ion-exchange chromatography (system: Agilent 1100 series, column: DNAPac PA200 (4×250 mm) (Thermo Fisher Scientific K.K.), buffer A: 10 mM Tris, 25 mM sodium perchlorate, and 20% ethanol, pH 7.0, buffer B: 10 mM Tris, 250 mM sodium perchlorate, and 20% ethanol, pH 7.0, gradient (B %): 20-70% (0-15 min), flow rate: 0.5 mL/min, temperature: 40° C., detection: 260 nm).
as §2, with “82-92%” for “87-92%”
The total amount of lipids was calculated from the amount of the phospholipid, the amount of cholesterol, and the amount of LP, and the compositional ratio of lipid components constituting the liposome, and the ratio of the mRNA to the lipid was calculated from the “amount of the mRNA in the presence of the detergent” of the preceding paragraph (2) according to the following expression: [mRNA concentration in the presence of the detergent]/[Total lipid concentration] (wt/wt)

human β-catenin gene [4] = experiment: Test Example 1: β-catenin gene expression inhibition in SW480 cells, 3 days, real-time PCR; format: cell-based; details: for inhibitory activity against β-catenin gene expression (in words): compared with particle containing lipid of Reference Example 2; for IC50: nucleic acid lipid particle of Example 31 containing the named lipid, double-stranded polynucleotide concentration, read-out: β-catenin gene expression inhibitory activity IC50
Method: (§4) As described below, the strength of human β-catenin gene expression inhibitory activity was compared among nucleic acid lipid particles each prepared using a novel lipid.
(§5) The concentration of a human colorectal cancer SW480 cell line (derived from human colorectal adenocarcinoma) was adjusted to 50,000 cells/mL in an RPMI1640 medium (manufactured by Invitrogen Corp.) containing 10% fetal bovine serum (culture medium). Then, the resulting culture solution was inoculated at 100 μL/well to a 96-well flat-bottomed plate (manufactured by Corning Inc./Falcon) and cultured at 37° C. for 1 day under 5.0% CO2. The nucleic acid lipid particle dispersion prepared in Example 31 was diluted with a culture medium to prepare dilution series having final double-stranded polynucleotide concentrations of 30, 3.0, 0.3, and 0.03 nM in the medium. Then, each dilution was added to the cells after removal of the culture supernatant, and the culture was further continued for 3 days. This operation was performed at N=3 for each concentration.
(§6) A lysate and cDNA for real-time PCR measurement were prepared from the transfected cells using TaqMan® Fast-Cells-to-Ct kit (Life Technologies, Inc./Ambion) according to the instruction manual. In the lysate preparation, Lysis Solution supplemented with DNase I was used. The probes for real-time PCR used were TaqMan® Gene Expression Assays (CTNNB1, FAM probe) (Hs00355045_m1, manufactured by Applied Biosystems, Inc.) for the human β-catenin gene and a human GAPDH gene probe as an internal standard (VIC probe, Hs99999905_m1, manufactured by Applied Biosystems, Inc.). 5 μL of TaqMan® Fast Advanced Master Mix, 2 μL of RNase-Free Water, 0.5 μL of each gene probe, and 2 μL of the prepared cDNA solution were added per well of a 384-well PCR plate (manufactured by Applied Biosystems, Inc.) to bring the total amount to 10 μL, which was then loaded in ViiA™ 7 Real-time PCR system (manufactured by Applied Biosystems, Inc.) and subjected to PCR under conditions given below. The real-time PCR was carried out at N=4 for the cDNA prepared from the lysate.
(§7) PCR initial activation: 95° C. for 20 seconds
(§8) PCR: 95° C. for 1 second • 62° C. for 20 seconds
(§9) This PCR cycle was repetitively performed 40 times.
(§10) The quantitative analysis was conducted by the ΔΔCt method.

human β-catenin gene [5] = experiment: Test Example 2: β-catenin gene expression inhibition in HepG2 cells, 3 days, real-time PCR; format: cell-based; details: for inhibitory activity against β-catenin gene expression (in words): compared with particle containing lipid of Reference Example 2; for IC50: nucleic acid lipid particle of Example 31 containing the named lipid, read-out: β-catenin gene expression inhibitory activity IC50
Method: as §4
The concentration of a human liver cancer HepG2 cell line (derived from human liver cancer) was adjusted to 50000 cells/mL in a DMEM medium (manufactured by Invitrogen Corp.) containing 10% fetal bovine serum (culture medium). Then, the resulting culture solution was inoculated at 100 μL/well to a 96-well flat-bottomed plate (manufactured by Corning Inc./Falcon) and cultured at 37° C. for 1 day under 5.0% CO2. The nucleic acid lipid particle-containing dispersion prepared in Example 31 was diluted with a culture medium to prepare dilution series having final double-stranded polynucleotide concentrations of 30, 3, 0.3, and 0.03 nM in the medium. Then, each dilution was added to the cells after removal of the culture supernatant, and the culture was further continued for 3 days. This operation was performed at N=3 for each concentration.
as §6, §7, §8, §9, §10

human β-catenin gene [6] = experiment: Test Example 8: β-catenin gene expression inhibition in SW480 cells, procedures of Test Example 3, 50-0.05 nM; format: cell-based; details: for inhibitory activity against β-catenin gene expression (in words): compared with particle containing lipid of Reference Example 2; for IC50: procedures of Test Example 3, 50, 5, 0.5, 0.05 nM, particles of Example 55, read-out: β-catenin gene expression inhibitory activity IC50
Method: as §5, with “to 50000” for “to 50,000”, “in a” for “in an”, “lipid particle-containing” for “lipid particle”, “30, 3,” for “30, 3.0,”, “for 4 hours.” for “for 3 days.”
as §6, §10
By the same procedures as in Test Example 3, SW480 cells were treated with 50 nM, 5 nM, 0.5 nM, and 0.05 nM each of nucleic acid lipid particles each prepared using a novel lipid, and the strength of human β-catenin gene expression inhibitory activity was compared among these particles.

[7] = particles of Example 31, volume-average particle size ± deviation
[8] = particles of Example 31: DSPC:Chol:LP:PEG-C-DMA=20:48:30:2, CT-157/CT-169 double-stranded polynucleotide
[9] = particles of Example 31, total lipids calculated from phospholipid amount and compositional ratio (Table 3)
[10] = Example 55: particles prepared as in Example 31, ± deviation
[11] = Example 55: particles prepared as in Example 31 (β-catenin double-stranded polynucleotide)
[12] = Example 55: particles prepared as in Example 31

| Average particle size [1, 10] [nm] | Rate of polynucleotide encapsulation [2, 11] [%] | Ratio of polynucleotide to lipid siRNA/lipid [3, 12] [wt/wt] | IC50 (human β-catenin gene [6]) [nM] | Compound | Average particle size [1, 7] [nm] | Rate of polynucleotide encapsulation [2, 8] [%] | Ratio of polynucleotide to lipid siRNA/lipid [3, 9] [wt/wt] | inhibitory activity against β-catenin gene expression (in words) (human β-catenin gene [4]) | IC50 (human β-catenin gene [4]) [nM] | inhibitory activity against β-catenin gene expression (in words) (human β-catenin gene [5]) | IC50 (human β-catenin gene [5]) [nM] | inhibitory activity against β-catenin gene expression (in words) (human β-catenin gene [6]) |
| --- | --- | --- | --- | --- | --- | --- | --- | --- | --- | --- | --- | --- |
| 158 ± 40 | 97 | 0.101 | 2.6 | CCCCCC[C@H](C/C=C\CCCCCCCC(CCCCCCC/C=C\C[C@@H](CCCCCC)OC(=O)CC)OC(=O)OCCCN(C)C)OC(=O)CC [Example 41, (7R,9Z,26Z,29R)-18-({[3-(Dimethylamino)propoxy]carbonyl}oxy)pentatriaconta-9,26-diene-7,29-diyl Dipropionate] | – | – | – | – | – | – | – | strong inhibitory activity |
| 188 ± 45 | 97 | 0.077 | 6 | CCCCCC[C@H](C/C=C\CCCCCCCCC(CCCCCCCC/C=C\C[C@@H](CCCCCC)OC(C)=O)OC(=O)OCCCN(C)C)OC(C)=O [Example 42, (7R,9Z,28Z,31R)-19-({[3-(Dimethylamino)propoxy]carbonyl}oxy)heptatriaconta-9,28-diene-7,31-diyl Diacetate] | – | – | – | – | – | – | – | strong inhibitory activity |
| 174 ± 31 | 97 | 0.075 | 24 | CCCCCCCCCCCCC(CCCCCCC/C=C\C[C@@H](CCCCCC)OC(C)=O)OC(=O)OCCCN(C)C (stereo partly drawn) [Example 43, (7R,9Z)-18-({[3-(Dimethylamino)propoxy]carbonyl}oxy)triacont-9-en-7-yl Acetate] | – | – | – | – | – | – | – | strong inhibitory activity |

Continued, compound first:

| Compound | Average particle size [1, 10] [nm] | Rate of polynucleotide encapsulation [2, 11] [%] | Ratio of polynucleotide to lipid siRNA/lipid [3, 12] [wt/wt] | IC50 (human β-catenin gene [6]) [nM] | Average particle size [1, 7] [nm] | Rate of polynucleotide encapsulation [2, 8] [%] | Ratio of polynucleotide to lipid siRNA/lipid [3, 9] [wt/wt] | inhibitory activity against β-catenin gene expression (in words) (human β-catenin gene [4]) | IC50 (human β-catenin gene [4]) [nM] | inhibitory activity against β-catenin gene expression (in words) (human β-catenin gene [5]) | IC50 (human β-catenin gene [5]) [nM] | inhibitory activity against β-catenin gene expression (in words) (human β-catenin gene [6]) |
| --- | --- | --- | --- | --- | --- | --- | --- | --- | --- | --- | --- | --- |
| CCCCC/C=C\C/C=C\CCCCCCCCC(CCCCCCCC/C=C\C/C=C\CCCCC)OC(=O)OCCCN(C)C [Example 1, 3-(Dimethylamino)propyl(6Z,9Z,28Z,31Z)-heptatriaconta-6,9,28,31-tetraen-19-yl Carbonate] | – | – | – | – | 183 ± 41 | 94.3 | 0.109 | strong inhibitory activity | 3.5 | strong inhibitory activity | 0.38 | – |
| CCCCC/C=C\C/C=C\CCCCCCCC(CCCCCCC/C=C\C/C=C\CCCCC)OC(=O)OCCCN(C)C [Example 2, 3-(Dimethylamino)propyl(6Z,9Z,26Z,29Z)-pentatriaconta-6,9,26,29-tetraen-18-yl Carbonate] | – | – | – | – | 215 ± 70 | 96.3 | 0.099 | strong inhibitory activity | 6.8 | strong inhibitory activity | 0.47 | – |
| CCCCC/C=C\C/C=C\CCCCCCCC(CCCCCCC/C=C\C/C=C\CCCCC)OC(=O)OCCCCN(C)C [Example 3, 4-(Dimethylamino)butyl(6Z,9Z,26Z,29Z)-pentatriaconta-6,9,26,29-tetraen-18-yl Carbonate] | – | – | – | – | 187 ± 31 | 98.6 | 0.099 | strong inhibitory activity | 0.44 | strong inhibitory activity | 0.35 | – |
